Laboratory results published in patent publication US20240299352A1, “COMBINATION THERAPIES WITH SETD2 INHIBITORS” (Epizyme, Inc., priority 2021, published 2024).

Legend:
Format in all cases: cell-based
[1] = system: KARPAS422; experiment: Co-treatment combination study with Cpd. No. 15, CellTiter-Glo viability, Loewe Volume; details: in combination with Cpd. No. 15, seven days, DLBCL cell line KARPAS422
How it was run: (§1)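 Viability after combined dosing was assessed through ATP content by CellTiter-Glo following a 7-day co-incubation of MCL or DLBCL cells with both compounds.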

[2] = system: SUDHL8; experiment: as above; details: in combination with Cpd. No. 15, seven days, DLBCL cell line SUDHL8
How it was run: as §1

[3] = system: GRANTA519; experiment: as above; details: in combination with Cpd. No. 15, seven days, mantle cell lymphoma cell line GRANTA519 (ACC 342)
How it was run: as §1

[4] = system: MINO; experiment: as above; details: in combination with Cpd. No. 15, seven days, mantle cell lymphoma cell line MINO (CRL-3000)
How it was run: as §1

[5] = system: WSUNHL; experiment: as above; details: in combination with Cpd. No. 15, seven days, DLBCL cell line WSUNHL
How it was run: as §1

[6] = system: MAVER1; experiment: as above; details: in combination with Cpd. No. 15, seven days, mantle cell lymphoma cell line MAVER1 (CRL-3008)
How it was run: as §1

[7] = system: WILL2; experiment: as above; details: in combination with Cpd. No. 15, seven days, DLBCL cell line WILL2
How it was run: as §1

[8] = system: SUDHL4; experiment: as above; details: in combination with Cpd. No. 15, seven days, DLBCL cell line SUDHL4
How it was run: as §1

[9] = system: SUDHL5; experiment: as above; details: in combination with Cpd. No. 15, seven days, DLBCL cell line SUDHL5
How it was run: as §1

[10] = system: REC1; experiment: as above; details: in combination with Cpd. No. 15, seven days, mantle cell lymphoma cell line REC1 (CRL-3004)
How it was run: as §1

[11] = system: RL; experiment: as above; details: in combination with Cpd. No. 15; 6-Day Cotreatment; DLBCL cell line RL
[12] = system: DOHH2; experiment: as above; details: in combination with Cpd. No. 15, seven days, DLBCL cell line DOHH2
How it was run: as §1

[13] = system: SUDHL10; experiment: as above; details: in combination with Cpd. No. 15; 5-Day Cotreatment; DLBCL cell line SUDHL10
[14] = system: SUDHL2; experiment: as above; details: in combination with Cpd. No. 15, seven days, DLBCL cell line SUDHL2
How it was run: as §1

[15] = system: JVM2; experiment: as above; details: in combination with Cpd. No. 15, seven days, mantle cell lymphoma cell line JVM2 (CRL-3002)
How it was run: as §1

[16] = system: Z138; experiment: as above; details: in combination with Cpd. No. 15, seven days, mantle cell lymphoma cell line Z138 (CRL-3001)
How it was run: as §1

[17] = system: TOLEDO; experiment: as above; details: in combination with Cpd. No. 15, seven days, DLBCL cell line TOLEDO
How it was run: as §1

[18] = system: SUDHL6; experiment: as above; details: in combination with Cpd. No. 15, seven days, DLBCL cell line SUDHL6
How it was run: as §1

[19] = system: DB; experiment: as above; details: in combination with Cpd. No. 15, seven days, DLBCL cell line DB
How it was run: as §1

[20] = system: Pfeiffer; experiment: as above; details: in combination with Cpd. No. 15, seven days, DLBCL cell line Pfeiffer
How it was run: as §1

[21] = system: JEKO1; experiment: as above; details: in combination with Cpd. No. 15, seven days, mantle cell lymphoma cell line JEKO1 (CRL-3006)
How it was run: as §1

[22] = system: WSUDLCL2; experiment: as above; details: in combination with Cpd. No. 15, seven days, DLBCL cell line WSUDLCL2
How it was run: as §1

[23] = system: HT; experiment: as above; details: in combination with Cpd. No. 15, seven days, DLBCL cell line HT
How it was run: as §1

[24] = system: diffuse large B-cell lymphoma (DLBCL) cell lines; experiment: Co-treatment combination study with Cpd. No. 15, further cell lines (Table F), CellTiter-Glo viability, Loewe Volume
Description: Mantle cell lymphoma (MCL) and diffuse large B-cell lymphoma (DLBCL) cell line cultures in log-linear growth rate were treated with combinations of Cpd. No. 15 and combination partners according to a co-treatment model. […] No. 15 and the combination partner. […] Each combination was tested in quadruplicate wells. The final concentration of DMSO (vehicle) in the assay was 0.1% v/v. Fifty microliters of cell line suspension were directly dispensed to the assay-ready plates with an automated multichannel dispenser on to 384-well assay-ready plates. Assay plates were incubated for seven days unless otherwise indicated in a humidified atmosphere of 5% CO2 at 37° C. Quantification of the effect of single agents or combinations on cell viability was performed through measurement of cellular adenosine triphosphate (ATP) using a CellTiter-Glo® (Promega, Madison, WI) Luminescent Cell Viability Assay. Luminescence was detected using a SpectraMax M5 microplate reader (Molecular Devices, Sunnyvale, CA). Concentration response plots were generated in GraphPad Prism version 7.0 for Windows, GraphPad Software, (La Jolla, California) and curves fitted to a four-parameter logistic model with variable slope. Percent of inhibition was calculated at each treatment concentration.

Compound: COc1cccc2c1C(=O)c1c(O)c3c(c(O)c1C2=O)C[C@@](O)(C(=O)CO)C[C@@H]3O[C@H]1C[C@H](N)[C@H](O)[C@H](C)O1 [Doxorubicin, doxorubicin]
- Combination effect (Loewe Volume) KARPAS422 [1]: Additivity (between 1 and −1: additivity)
- Combination effect (Loewe Volume) SUDHL8 [2]: Additivity (between 1 and −1: additivity)
- Combination effect (Loewe Volume) GRANTA519 [3]: Additivity (between 1 and −1: additivity)
- Combination effect (Loewe Volume) MINO [4]: Additivity (between 1 and −1: additivity)
- Combination effect (Loewe Volume) WSUNHL [5]: Additivity (between 1 and −1: additivity)
- Combination effect (Loewe Volume) MAVER1 [6]: Additivity (between 1 and −1: additivity)
- Combination effect (Loewe Volume) WILL2 [7]: Additivity (between 1 and −1: additivity)
- Combination effect (Loewe Volume) SUDHL4 [8]: Additivity (between 1 and −1: additivity)
- Combination effect (Loewe Volume) SUDHL5 [9]: Additivity (between 1 and −1: additivity)
- Combination effect (Loewe Volume) REC1 [10]: Additivity (between 1 and −1: additivity)
- Combination effect (Loewe Volume) RL [11]: Additivity (between 1 and −1: additivity)
- Combination effect (Loewe Volume) DOHH2 [12]: Additivity (between 1 and −1: additivity)
- Combination effect (Loewe Volume) SUDHL10 [13]: Additivity (between 1 and −1: additivity)
- Combination effect (Loewe Volume) SUDHL2 [14]: Additivity (between 1 and −1: additivity)
- Combination effect (Loewe Volume) JVM2 [15]: Additivity (between 1 and −1: additivity)
- Combination effect (Loewe Volume) Z138 [16]: Additivity (between 1 and −1: additivity)
- Combination effect (Loewe Volume) TOLEDO [17]: Synergy (VLoewe>1: synergy)
- Combination effect (Loewe Volume) SUDHL6 [18]: Synergy (VLoewe>1: synergy)
- Combination effect (Loewe Volume) DB [19]: Additivity (between 1 and −1: additivity)
- Combination effect (Loewe Volume) Pfeiffer [20]: Additivity (between 1 and −1: additivity)
- Combination effect (Loewe Volume) JEKO1 [21]: Additivity (between 1 and −1: additivity)
- Combination effect (Loewe Volume) WSUDLCL2 [22]: Additivity (between 1 and −1: additivity)
- Combination effect (Loewe Volume) HT [23]: Additivity (between 1 and −1: additivity)
- Combination effect with Cpd. No. 15 (Loewe Volume class), Ri1 ([24]; co-treatment with Cpd. No. 15, cell line Ri1 (Cat. No. 96090512-1VL)): Synergy (VLoewe>1: synergy)
- Combination effect with Cpd. No. 15 (Loewe Volume class), TMD8 ([24]; co-treatment with Cpd. No. 15, cell line TMD8 (Cat. No. M-097)): Additivity (between 1 and −1: additivity)
- Combination effect with Cpd. No. 15 (Loewe Volume class), WILL1 ([24]; co-treatment with Cpd. No. 15, cell line WILL1 (Cat. No. ACC 651)): Additivity (between 1 and −1: additivity)
